Assay results as given in US10006080B2, “High-selectivity contact activation inhibitor based on infestin-4” (OBSCHESTVO S OGRANICHENNOY OTVETSTVENNOSTYU …, priority 2013, dated 2018).

Assays:
[1] = test system: hypercoagulant PFP; test: Thrombodynamics analyzer T-2, clots far from the activator in hypercoagulant PFP (100 pM fXIa added); format: biochemical, human; conditions: MutB 20 μM, CTI 15 μM; for time of appearance of clots far from the activator after activation: hypercoagulant PFP, nearly 5-8 minutes without inhibitor
Procedure: To assess the influence of the said contact activation inhibitors on appearance, far from the activator, of clots provoked by hypercoagulation, but not by contact activation of the sample by the cuvette walls, we added MutB (20 μM) and CTI (15 μM) into 2 separate samples of hypercoagulant PFP. Hypercoagulant PFP was obtained from normal frozen-thawed PFP by adding 100 pM of fXIa.
The influence of a polypeptide consisting of the sequence of an infestin-4 mutant MutB on the growth of fibrin clots in the samples of hypocoagulant, normal, and hypercoagulant blood plasma was studied using the laboratory diagnostic system «Thrombodynamics analyzer T-2» and the «Diagnostic kit for thrombodynamics investigation in blood plasma» (HemaCore, Moscow, Russia) according to the manual to the «Diagnostic kit for thrombodynamics investigation in blood plasma» (HemaCore, Moscow, Russia). Here, the said polypeptide was preliminarily proteolytically cleaved and chromatographically purified from thioredoxin (Trx). 15 minutes before the assay, the measuring cuvette, insert-activator with immobilized TF, and the reagents were held at 37° C. Standard investigation temperature was of 37° C. 15 minutes before the assay, 120 microliters of plasma were mixed with the investigated substances, MutB or CTI, for comparison, and put into a microtube. After mixing of the plasma with the substances, the tube with the plasma was put into a thermostat at 37° C. for 15 minutes. Immediately before the assay, the plasma was re-calcified: 120 microliters of the mixture of plasma and substances were put into a microtube with Reagent II (lyophilized solution of calcium acetate with an additive), and mixed up to complete Reagent II dilution. Then, 120 microliters of the mixture with Reagent II from the microtube was immediately transferred into the measuring cuvette. After that, the insert-activator was carefully inserted into the cuvette so that the surface with immobilized tissue factor would contact the plasma. Immediately after the contact of the coagulation activator with the blood plasma, the photography of the process of fibrin clot growth in plasma within the cuvette started. The cuvette-activator was a plate with the coagulation activator—tissue factor—immobilized at the low end surface (Fadeeva et al. 2010, Biochemistry (Moscow) 75:827-838). The automatic calculation of the assay results was performed using the software (user manual «Software for the laboratory diagnostic system «Thrombodynamics analyzer T-2», HemaCore, Moscow, Russia).

[2] = test system: contact activation; test: Thrombodynamics analyzer T-2, artifact clots far from the TF activator in normal frozen-thawed PFP; format: biochemical, human; conditions: MutB 20 μM, CTI 15 μM; for cuvette area occupied by artifact clots far from the activator: 30 minutes after activation, whole cuvette area without inhibitor; for suppression of contact activation, formation of artifact clots: 30 minutes after assay start, n=4
Procedure: The assay included the following steps: thawing of a frozen PFP sample, adding to it of a contact activation inhibitor and incubating the resulting mixture, sample recalcification and its placing into the measuring cuvette channel, bringing the sample into contact with the TF immobilized at the end of a special insert-activator, and detecting the appearance and growth of fibrin clots in the consequent photography mode. The frozen PFP sample was obtained preliminarily through collection of blood into sodium citrate-containing tubes from several (at least five) healthy donors and subsequent 2 stages of centrifugation and freezing of the prepared plasma at −80° C. During the assay arrangement, the fibrin clot was growing from the insert-activator; appearance of additional clots in the cuvette area far from the activator was also possible, as shown on FIG. 2. Clots in the cuvette area far from the activator can be due to the hypercoagulation state of the sample or to the artifacts of sample contact activation from the cuvette walls (artifact clots): the latter must be suppressed for the said test to allow distinguishing between the normal and hypercoagulation states of the coagulation system. To do that, before activating the sample through bringing it into contact with TF, an efficient quantity of the contact activation inhibitor was added into the sample: in this case, we used the polypeptide comprising the sequence of an infestin-4 mutant MutB. To compare the efficiency of the claimed polypeptide comprising the sequence of an infestin-4 mutant MutB with the contact activation inhibitor CTI known in the field, the said inhibitors were added into 2 separate samples of normal frozen PFP plasma. We used such concentrations of the inhibitors at which the APTT increases nearly four-fold: 20 μM in case of MutB and 15 μM in case of CTI. […] For each sample, 4 repeated measurements were performed. 30 minutes after the assay start, images of the fibrin clot in measuring cuvettes-4 cuvettes for each sample-were obtained: they are shown on FIG. 3.
The cuvette area occupied by artifact clots (in % from the total cuvette area; n=4) was plotted for 3 samples of normal frozen plasma at separate time points (FIG. 4, averaged values at each time point). Without adding the contact activation inhibitor, artifact clots appear in the cuvette area far from the activator nearly 15 minutes after activation and occupy the whole cuvette area after 30 minutes. However, after addition of CTI or MutB, such clots occupy not more than 15% of the cuvette area 30 minutes after activation. […]

| Molecule | influence on appearance of clots far from the activator in hypercoagulant plasma [1] | time of appearance of clots far from the activator after activation [1] [min] | cuvette area occupied by artifact clots far from the activator [2] | suppression of contact activation, formation of artifact clots [2] |
| --- | --- | --- | --- | --- |
| MutB: polypeptide comprising the sequence of infestin-4 mutant MutB (SEQ ID NO: 1), inhibition loop TRNFVA; high-selectivity fXIIa inhibitor (EVRNPCACTRNFVAVCGSDGKTYGNPCMLNCAAQTKVPGLKLVHEGRCQRSNVEQF; Infestin-4 mutant MutB) | does not influence appearance of clots far from the activator | 5 to 8 | not more than 15% | almost complete suppression |
| corn trypsin inhibitor (other, UniProt P01088 29-138, looked up, Isolated from corn; also called CTI) SAGTSCVPGWAIPHNPLPSCRWYVTSRTCGIGPRLPWPELKRRCCRELADIPAYCRCTALSILMDGAIPPGPDAQLEGRLEDLPGCPREVQRGFAATLVTEAECNLATIS | delays appearance of clots far from the activator | 10 to 15 | not more than 15% | almost complete suppression |
